What was measured:
[1] = in protic solvent; cited from earlier work
[2] = storage stability of the boronic acid on exposure to air; type: physicochemical; details: without taking any precautions to avoid exposure to air

stability of the sample on storage [2] | SMILES | rate constant k of reduction of nitroxide by phenols (hydrogen transfer) [1] [M⁻¹ s⁻¹]
 | O=C(O)c1cc(O)c(O)c(O)c1 [gallic acid] | 0.003
stable for over a year | CCCCB(O)O [n-butyl boronic acid] | 
 | Cc1cc(C(C)(C)C)c(O)c(C(C)(C)C)c1 [BHT] | 0.003
 | Cc1c(C)c2c(c(C)c1O)CCC(C)(C(=O)O)O2 (stereo not shown) [TROLOX] | 0.2

Source: patent US20140242712A1, “FLUORESCENCE DETECTION OF POISON OAK OIL” (priority 1999, published 2014)
